Results published in PubChem BioAssay (NCI).
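Growth conditions: 96-well plates. Treatment: test compound, 48 hours, 5 concentrations. Analysis: linear interpolation between bracketing concentrations; unreached endpoints set to highest concentration. TGI: total growth inhibition.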

Columns and labels:
Experiment in all cases: NCI-60 cell line screen, 48 h
SR leukemia = system: SR leukemia
M14 melanoma = system: M14 melanoma
UACC-62 melanoma = system: UACC-62 melanoma
BT-549 breast = system: BT-549 breast
786-0 renal = system: 786-0 renal
CAKI-1 renal = system: CAKI-1 renal
SNB-19 CNS = system: SNB-19 CNS
SK-MEL-28 melanoma = system: SK-MEL-28 melanoma
HOP-62 NSCLC = system: HOP-62 NSCLC
HT29 colon = system: HT29 colon
OVCAR-8 ovarian = system: OVCAR-8 ovarian
PC-3 prostate = system: PC-3 prostate
A549 NSCLC = system: A549 NSCLC
IGROV1 ovarian = system: IGROV1 ovarian
K-562 leukemia = system: K-562 leukemia
DU-145 prostate = system: DU-145 prostate
U251 CNS = system: U251 CNS
HS 578T breast = system: HS 578T breast
RPMI-8226 leukemia = system: RPMI-8226 leukemia
HL-60(TB) leukemia = system: HL-60(TB) leukemia
HOP-92 NSCLC = system: HOP-92 NSCLC
CCRF-CEM leukemia = system: CCRF-CEM leukemia
OVCAR-4 ovarian = system: OVCAR-4 ovarian
MOLT-4 leukemia = system: MOLT-4 leukemia
KM12 colon = system: KM12 colon
MDA-N = system: MDA-N
MDA-MB-231 breast = system: MDA-MB-231 breast
SK-OV-3 ovarian = system: SK-OV-3 ovarian
SW-620 colon = system: SW-620 colon
NCI/ADR-RES ovarian = system: NCI/ADR-RES ovarian
SF-539 CNS = system: SF-539 CNS
OVCAR-5 ovarian = system: OVCAR-5 ovarian
A498 renal = system: A498 renal
SK-MEL-2 melanoma = system: SK-MEL-2 melanoma
MDA-MB-435 = system: MDA-MB-435
SN12C renal = system: SN12C renal
SK-MEL-5 melanoma = system: SK-MEL-5 melanoma
OVCAR-3 ovarian = system: OVCAR-3 ovarian
HCT-15 colon = system: HCT-15 colon
HCT-116 colon = system: HCT-116 colon
HCC-2998 colon = system: HCC-2998 colon
NCI-H23 lung = system: NCI-H23 lung
COLO 205 colon = system: COLO 205 colon
LOX IMVI melanoma = system: LOX IMVI melanoma
UACC-257 melanoma = system: UACC-257 melanoma
NCI-H226 lung = system: NCI-H226 lung
SNB-75 CNS = system: SNB-75 CNS
RXF 393 renal = system: RXF 393 renal
NCI-H460 lung = system: NCI-H460 lung
ACHN renal = system: ACHN renal
SF-295 CNS = system: SF-295 CNS
T-47D breast = system: T-47D breast
UO-31 renal = system: UO-31 renal
MALME-3M melanoma = system: MALME-3M melanoma
SF-268 CNS = system: SF-268 CNS
MCF7 breast = system: MCF7 breast
TK-10 renal = system: TK-10 renal
NCI-H522 lung = system: NCI-H522 lung
EKVX NSCLC = system: EKVX NSCLC

Measured: TGI

O=C(N/N=C1/C(=O)c2c3ccccc3cc3cccc1c23)c1cccc(Cl)c1
67.2 µM: HS 578T breast
not listed: SF-295 CNS | T-47D breast | UO-31 renal | MALME-3M melanoma | SF-268 CNS | MCF7 breast | TK-10 renal | NCI-H522 lung | EKVX NSCLC
> 100 µM: all other assays above

O=C(/C=C(\Nc1ccccc1O)c1ccccc1)C(=O)NC12CC3CC(CC(C3)C1)C2
5.87 µM: HT29 colon
not listed: UACC-62 melanoma | BT-549 breast | SNB-19 CNS | A549 NSCLC | HOP-92 NSCLC | HCT-116 colon
> 10 µM: all other assays above
